We go through one molecule from US20040192554A1, “Technique for effectively treating an agricultural product with a 1-substituted-cyclopropene” (priority 2003, published 2004).

Holding throughout (type): in vivo
In assay [1] the test system is peach (variety "Akatsuki") fruit. The experiment in a line: Quality deterioration of peach (Akatsuki) fruit after storage, Example 9. Particulars: 1 ppm, after storage 25 degrees C 5 days, treated day after harvest. How it is done:
Using a peach (variety “Akatsuki”) fruit (6 fruits were used per group) as an agricultural product, the following experiment was performed.
1) A fruit was placed into a sealed chamber, and a pressure in the chamber was reduced to 25.0 kPa. Subsequently, 1-methylcyclopropene was placed therein to the concentration in the chamber of 1 ppm, and contact-treated for 1 minute under the reduced pressure (25.0 kPa). Then, the pressure was returned to a normal pressure, and contact treatment was carried out for 12 hours while the concentration of 1-methylcyclopropene in the chamber was maintained at 1 ppm.
2) A fruit was placed into a sealed chamber, and a pressure in the chamber was reduced to 25.0 kPa. Subsequently, 1-methylcyclopropene was placed therein to the concentration in the chamber of 1 ppm, and contact-treated for 12 hours under the reduced pressure (25.0 kPa).
The fruit which had been subjected to treatment of the above-mentioned 1) or 2) was stored at 25 degrees C for 5 days, and hardness of flesh was measured. […] In addition, also regarding a fruit undergoing no treatment of 1) or 2) (non-treatment), similar storage was performed, and the above-mentioned index was measured. Further, regarding a non-treated fruit, the above-mentioned index before storage was also measured. […]

For assay [2], the system named is peach (variety "Yuzora") fruit. The experiment in a line: Quality deterioration of peach (Yuzora) fruit after storage, Example 7. Particulars: 1 ppm, after storage 25 degrees C 9 days. The protocol: Using a peach (variety “Yuzora”) fruit (6 fruits were used per group) as an agricultural product, the following experiment was performed.
1) A fruit and 1-methylcyclopropene (concentration 1 ppm in a chamber) were placed into a sealed chamber, and contact-treated for 24 hours under a normal pressure.
(§1) 2) A fruit was placed into a sealed chamber, and a pressure in the chamber was reduced to 25.0 kPa. Subsequently, 1-methylcyclopropene was placed therein to the concentration in the chamber of 1 ppm, and contact-treated for 1 minute under the reduced pressure (25.0 kPa).
The fruit which had been subjected to treatment of the above-mentioned 1) or 2) was stored at 25 degrees C for 9 days, and hardness of flesh and was measured. In addition, contact treatment of the above-mentioned 1) or 2) was performed on the next day from harvesting of fruit. In addition, also regarding a fruit undergoing no treatment of 1) or 2) (non-treatment), similar storage was performed, and the above-mentioned index was measured. Further, regarding non-treated fruit, the above-mentioned index before storage was also measured.

The subject of assay [3] is cut flower of a carnation (variety "Rosybabara"). In words: Withering of carnation cut flower after storage, Example 10. Particulars: 1 ppm, after storage 20 degrees C 14 days, average score of 5 plants (0=healthy). The protocol: Using a cut flower (5 ornamental plants were used per group) of a carnation (variety “Rosybabara”) as an agricultural product, the following experiment was performed. […]
2) An ornamental plant was placed into a sealed chamber, and a pressure in the chamber was reduced to 12.5 kPa. Subsequently, 1-methylcyclopropene was placed therein to the concentration in the chamber of 1 ppm, and contact-treated for 1 minute under the reduced pressure (12.5 kPa).
3) An ornamental plant was placed in a sealed chamber. Subsequently, a pressure in the chamber was reduced to 12.5 kPa and the ornamental plant was kept in the chamber under the reduced pressure for 1 minute.
An ornamental plant which had been subjected to treatment of the above-mentioned 1), 2) or 3) was stored at 20 degrees C for 14days, and an extent of withering of an ornamental plant was assessed by naked eyes. Assessment criteria were 4 stages; 0=healthy, 1=slight withering, 2=intermediate withering, […], and an average of assessment in 5 ornamental plants was calculated. Note that the treatment above-mentioned 1), 2) or 3) was performed on a day of harvesting an ornamental plant. In addition, also regarding an ornamental plant undergoing no treatment of 1), 2) or 3) (non-treatment), the similar storage was performed, and the above-mentioned index was measured.

For assay [4], the system named is Japanese pear (variety "Hosui") fruit. In words: Quality deterioration of Japanese pear (Hosui) fruit after storage, Example 4. Particulars: 1 ppm, after storage 25 degrees C 2 weeks. The protocol: Using a Japanese pear (variety “Hosui”) fruit (6 fruits were used per group) as an agricultural product, the following experiment was performed.
1) A fruit and 1-methylcyclopropene (concentration 1 ppm in a chamber) were placed into a sealed chamber, and contact-treated for 16 hours under a normal pressure.
as §1
The fruit which had been subjected to treatment of the above-mentioned 1) or 2) was stored at 25 degrees C for 2 weeks, and hardness of flesh and pH of a fruit juice which is an index for the content of an acid were measured. Contact treatment of the above-mentioned 1) or 2) was performed on a day of harvesting a fruit. In addition, also regarding a fruit undergoing no treatment of 1) or 2) (non-treatment), similar storage was performed, and the above-mentioned index was measured. Further, regarding non-treated fruit, the above-mentioned index before storage was also measured. Different alpha characters in Table 4 indicate that a significant difference was recognized at a risk rate of 5% (multiple range test of Newman-Keuls).

The mark [5] stands for this setting: Reduced pressure (25.0 kPa) 1 minute.

Structures are written as SMILES.

For the molecule `CC1=CC1` [1-MCP, 1-methylcyclopropene], the Hardness of flesh was 4.39a N in assay [1] (Normal pressure 12 hours after reduced pressure (25.0 kPa) 1 minute); 7.11b N in assay [1] (Reduced pressure (25.0 kPa) 12 hours); 4.38 N in assay [2] (Normal pressure 24 hours); 4.24 N in assay [2] (setting [5]); 18.72 N in assay [4] (Normal pressure 16 hours); 17.25 N in assay [4] (setting [5]). Also, the Extent of withering in assay [3] (Normal pressure 1 hour) was determined as 0.8; in assay [3] (Normal pressure 24 hours), 0.4; in assay [3] (Reduced pressure (12.5 kPa) 1 minute), 0.4. In addition, the “pH of fruit juice” value in assay [4] (Normal pressure 16 hours) is listed as 4.37a; in assay [4] (setting [5]), 4.43a.
